Patent US11351157B2, “Treatment of immunological disease using berberine nanoparticles” (Icahn School of Medicine at Mount Sinai, priority 2016, dated 2022)
Like-named read-outs stand apart in the source and are kept apart here.

Experiments:
P-glycoprotein = conditions: mediated by P-glycoprotein; cited from earlier work
peanut-specific IgE = test: Peanut-specific IgE in serum of peanut-sensitized mice (ELISA); assay type: in vivo, C3H/HeJ mice; conditions: two oral courses, vs Sham
From the text: Six-week-old female C3H/HeJ mice purchased from the Jackson Laboratory (Bar Harbor, Me.) were maintained in pathogen-free facilities at the Mount Sinai vivarium on peanut-free chow according to standard guidelines for the care and use of animals. Institute of Laboratory Animal Resources Commission of Life Sciences NRC. Guide for the Care and Use of Laboratory Animals: National Academic Press, 1996. […] Some mice were sensitized to egg white (EW) using a similar protocol. Subsequently, daily oral treatment with BBR-nanoparticles was administered in 4-week and 2-week phases with an interval of 2 weeks at times indicated. Mice were periodically challenged with systemic and oral challenges at approximately 6 week intervals, as indicated. In some experiments mice were given intraperitoneal injections of 100 μg of anti-CD8 or anti-IFNγ antibodies, one day prior and then twice weekly during treatment period. Microtitre plates were coated with defatted protein extracts of peanut or egg white (sample wells) and rat anti-mouse IgE (reference wells) and held overnight at 4° C. After washing three times, plates were blocked for 2 hours at room temperature with 2% BSA-PBS. After three washes plates were incubated with diluted serum samples overnight at 4° C. […] Total IgA, peanut specific IgG1 and IgG2a levels were measured as described in a previous publication. […]

[1] = in vivo; cited from earlier work
[2] = system: peripheral blood mononuclear cells (PBMCs); conditions: cited from earlier work; for IgE production by PBMCs: PBMCs from patients with food allergy
human B cells = conditions: cited from earlier work; for IgE production by human B cells: human B cells / U266 cells
[3] = target: T1, mIgE (membrane-bound IgE) (Homo sapiens, UniProt P01854); conditions: clinical trials; cited from earlier work
T1 construct: host or cells: endogenous mIgE on IgE-lineage B cells of human trial subjects
T1 sequence (P01854 whole entry): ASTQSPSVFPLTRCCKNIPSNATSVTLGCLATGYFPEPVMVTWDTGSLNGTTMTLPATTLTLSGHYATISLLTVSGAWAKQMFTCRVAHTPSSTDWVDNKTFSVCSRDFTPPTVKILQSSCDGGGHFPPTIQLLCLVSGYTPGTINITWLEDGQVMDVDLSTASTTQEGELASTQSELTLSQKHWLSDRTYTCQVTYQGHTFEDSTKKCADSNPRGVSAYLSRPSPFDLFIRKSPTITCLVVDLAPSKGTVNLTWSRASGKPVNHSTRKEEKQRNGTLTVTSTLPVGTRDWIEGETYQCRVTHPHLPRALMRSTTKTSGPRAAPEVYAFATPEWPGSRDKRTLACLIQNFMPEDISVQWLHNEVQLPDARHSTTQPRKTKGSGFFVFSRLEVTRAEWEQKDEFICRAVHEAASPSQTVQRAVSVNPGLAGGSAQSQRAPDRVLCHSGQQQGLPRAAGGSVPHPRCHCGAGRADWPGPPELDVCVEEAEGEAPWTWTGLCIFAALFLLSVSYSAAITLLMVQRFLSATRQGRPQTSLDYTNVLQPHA
T1 sequence (P11912 33-226 partner): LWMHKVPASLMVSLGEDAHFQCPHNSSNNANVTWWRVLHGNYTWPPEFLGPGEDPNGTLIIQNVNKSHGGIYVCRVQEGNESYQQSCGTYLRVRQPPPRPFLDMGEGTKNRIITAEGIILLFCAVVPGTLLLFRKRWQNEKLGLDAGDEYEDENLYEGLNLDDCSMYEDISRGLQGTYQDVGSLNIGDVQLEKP
T1 sequence (P40259 29-229 partner): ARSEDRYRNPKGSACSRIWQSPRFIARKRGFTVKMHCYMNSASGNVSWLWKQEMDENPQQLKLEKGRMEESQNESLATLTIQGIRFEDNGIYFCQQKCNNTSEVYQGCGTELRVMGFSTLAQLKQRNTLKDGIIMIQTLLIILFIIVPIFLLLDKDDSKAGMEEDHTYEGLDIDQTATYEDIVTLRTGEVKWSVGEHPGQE

Molecule	Rate of efflux from intestinal epithelial cells (P-glycoprotein)	Peanut-specific IgE (peanut-specific IgE)	Berberine taken up by the gastrointestinal tract [1]	Bioavailability [1]	IgE production by PBMCs [2]	IgE production by PBMCs ([2]; listed as Berberine)	Cytotoxicity of inhibition in PBMCs [2]	IC50 of IgE production (human B cells)	IgE production by human B cells (human B cells)	IgE production by human B cells (human B cells; listed as Berberine)	Clinical benefit in early human studies [3]	IgE reduction in early human studies [3]
COc1ccc2cc3[n+](cc2c1OC)CCc1cc2c(cc1-3)OCO2 [berberine, Berberine]	up to 95%	not	less than 5%	less than 1%	significant reduction	significantly reduced	non-cytotoxic	0.1962 µg/mL	significant reduction	significantly reduced		
quilizumab: mIgE (membrane-bound IgE) targeting antibody studied in clinical trials (antibody, chains of the INN, looked up, V domains shown) VH: EVQLVESGGGLVQPGGSLRLSCAASGFTFSDYGIAWVRQAPGKGLEWVAFISDLAYTIYYADTVTGRFTISRDNSKNTLYLQMNSLRAEDTAVYYCARDNWDAMDYWGQGTLVTVSS VL: DIQMTQSPSSLSASVGDRVTITCRSSQSLVHNNANTYLHWYQQKPGKAPKLLIYKVSNRFSGVPSRFSGSGSGTDFTLTISSLQPEDFATYYCSQNTLVPWTFGQGTKVEIK											without any significant clinical benefit	only moderate IgE reduction
